Read-outs that look alike come from different tables or passages of the source.
Legend:
human M2 receptor [1] = biological target: T1, human M2 receptor (Homo sapiens, UniProt P08172); format: cell-based; conditions: α >1 = positive cooperativity
T1 sequence (P08172 1-466): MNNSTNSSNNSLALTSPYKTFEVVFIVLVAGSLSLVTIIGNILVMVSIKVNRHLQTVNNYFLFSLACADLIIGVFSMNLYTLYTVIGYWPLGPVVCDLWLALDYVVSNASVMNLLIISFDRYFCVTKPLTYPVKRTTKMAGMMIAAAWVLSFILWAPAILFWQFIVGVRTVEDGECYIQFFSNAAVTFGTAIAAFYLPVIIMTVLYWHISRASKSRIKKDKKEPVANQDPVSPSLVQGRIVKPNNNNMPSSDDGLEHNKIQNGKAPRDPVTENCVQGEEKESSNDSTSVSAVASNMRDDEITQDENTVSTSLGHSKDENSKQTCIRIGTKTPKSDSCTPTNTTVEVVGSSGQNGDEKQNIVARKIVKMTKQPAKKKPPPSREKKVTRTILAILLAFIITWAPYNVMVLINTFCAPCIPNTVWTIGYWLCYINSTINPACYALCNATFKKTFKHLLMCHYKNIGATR

human M2 receptor [2] = biological target: T1, human M2 receptor
anaesthetized rats = test: Effects on the heart rate in anaesthetized rats (B-9); format: in vivo, rat; conditions: i.v. infusion via jugular vein over 5 min, dose not given, in some cases means of several determinations
Procedure: B-9. Effects of the Test Substances on the Heart Rate in Anaesthetized Rats
Male rats of the strain (WI) WU Br from the breeder Charles River are anaesthetized initially with a 4-5% isoflurane inhalation for approx. 3 min. Subsequently, anaesthesia is maintained using a 1.5% isoflurane inhalation. For this purpose, the anaesthetized animals are fixed on a heated operating plate. By means of visual inspection and between toe reflex, the depth of anaesthesia is checked.
For the application of the test substance, an i.v. route into the jugular vein is used. A caudal to cranial skin incision is then made longitudinally and both the cervical musculature and the salivary glands are severed. The right common carotid artery is exposed and blood supply is arrested both proximally and distally. Using microinstrumentation, a TIP catheter (1.2 F) is introduced into the vessel in order to measure the arterial pressure and the heart rate.
Initially, both parameters are monitored for 10 min in the basal state without substance addition. The substances to be investigated are dissolved in suitable solvent mixtures and subsequently administered at various dosages to a group of animals in each case via the jugular vein by an infusion pump over 5 min. A solvent-treated group is used as control under the same experimental conditions. The arterial blood pressure and heart rate with substance addition is determined for 20 min. The data are registered with the PowerLab system (AD instruments) and evaluated using the LabChart program (AD instruments).
The values determined in this manner for the percentage decrease in heart rate for individual working examples are given in Table 4 below (in some cases as means of a plurality of independent individual determinations): […]

[3] = shift of acetylcholine dose-response curve (Allosteric EC50 shift)
[4] = Receptor activity EC50, allosteric potency at EC20 acetylcholine, M2-GIRK1/4 reporter cells, in some cases mean of two or more determinations
[5] = read-out: Efficiency, boosting of the acetylcholine effect at EC20 acetylcholine concentration, M2-GIRK1/4 reporter cells
[6] = shift in the acetylcholine dose-response curve (Allosteric EC50 shift, GraphPad PRISM)
[7] = Receptor activity EC50, M2-GIRK1/4 activation test, acetylcholine at EC20, allosteric potency, in some cases mean values from two or more determinations

O=C(N[C@@H](C1CC1)C(F)(F)F)c1cn(-c2c(F)cc(F)cc2F)c2nc(N3C[C@@H](O)CC3=O)ccc2c1=O [Example 404, N-[(1 S)-1-Cyclopropyl-2,2,2-trifluoroethyl]-7-[(4S)-4-hydroxy-2-oxopyrrolidin-1-yl]-4-oxo-1-(2,4,6-trifluorophenyl)-1,4-dihydro-1,8-naphthyridine-3-carboxamide]
Cooperativity (alpha factor) (human M2 receptor [1]; [3]): 35 | EC50 (human M2 receptor [2]; [4]): 7 nM | Emax (human M2 receptor [2]; [5]): 98.3% | Reduction in heart rate (%) (anaesthetized rats): 9%

CC[C@@H](NC(=O)c1cn(-c2c(F)cc(F)cc2Cl)c2nc(N3C[C@@H](O)CC3=O)ccc2c1=O)C(F)(F)F [Example 407, 1-(2-Chloro-4,6-difluorophenyl)-7-[(4S)-4-hydroxy-2-oxopyrrolidin-1-yl]-4-oxo-N-[(2R)-1,1,1-trifluorobutan-2-yl]-1,4-dihydro-1,8-naphthyridine-3-carboxamide]
Cooperativity (alpha factor) (human M2 receptor [1]; [3]): 32 | EC50 (human M2 receptor [2]; [4]): 7 nM | Emax (human M2 receptor [2]; [5]): 98.5% | Reduction in heart rate (%) (anaesthetized rats): 13%

CC[C@@H](NC(=O)c1cn(-c2c(F)cccc2F)c2nc(N3C[C@@H](O)CC3=O)ccc2c1=O)C(F)(F)F [Example 275, 1-(2,6-Difluorophenyl)-7-[(4S)-4-hydroxy-2-oxopyrrolidin-1-yl]-4-oxo-N-[(2R)-1,1,1-trifluorobutan-2-yl]-1,4-dihydro-1,8-naphthyridine-3-carboxamide]
Cooperativity (alpha factor) (human M2 receptor [1]; [6]): 38 | EC50 (human M2 receptor [2]; [7]): 18 nM | Emax (human M2 receptor [2]; read-out: Efficiency): 92.8% | Reduction in heart rate (%) (anaesthetized rats): 9%

O=C(N[C@H](C1CC1)C(F)(F)F)c1cn(-c2c(F)cc(F)cc2Cl)c2nc(N3C[C@@H](O)CC3=O)ccc2c1=O [Example 414, 1-(2-Chloro-4,6-difluorophenyl)-N-[(1R)-1-cyclopropyl-2,2,2-trifluoroethyl]-7-[(4S)-4-hydroxy-2-oxopyrrolidin-1-yl]-4-oxo-1,4-dihydro-1,8-naphthyridine-3-carboxamide]
Cooperativity (alpha factor) (human M2 receptor [1]; [3]): 40 | EC50 (human M2 receptor [2]; [4]): 9 nM | Emax (human M2 receptor [2]; [5]): 100% | Reduction in heart rate (%) (anaesthetized rats): 16%

O=C(Nc1c(Cl)cccc1Cl)c1cn(-c2ccc(F)cc2F)c2nc(N3C[C@@H](O)CC3=O)ccc2c1=O [Example 201, N-(2,6-Dichlorophenyl)-1-(2,4-difluorophenyl)-7-[(4S)-4-hydroxy-2-oxopyrrolidin-1-yl]-4-oxo-1,4-dihydro-1,8-naphthyridine-3-carboxamide]
Cooperativity (alpha factor) (human M2 receptor [1]; [6]): 39 | EC50 (human M2 receptor [2]; [7]): 39 nM | Reduction in heart rate (%) (anaesthetized rats): 6%

CC[C@H](NC(=O)c1cn(-c2c(F)cc(F)cc2F)c2nc(N3C[C@@H](O)CC3=O)ccc2c1=O)C(F)(F)F [Example 332, 7-[(4S)-4-Hydroxy-2-oxopyrrolidin-1-yl]-4-oxo-N-[(2S)-1,1,1-trifluorobutan-2-yl]-1-(2,4,6-trifluorophenyl)-1,4-dihydro-1,8-naphthyridine-3-carboxamide]
Cooperativity (alpha factor) (human M2 receptor [1]; [6]): 37 | EC50 (human M2 receptor [2]; [7]): 20 nM | Emax (human M2 receptor [2]; read-out: Efficiency): 99.2% | Reduction in heart rate (%) (anaesthetized rats): 11%

CC(C)(CC(F)(F)F)NC(=O)c1cn(-c2c(F)cc(F)cc2F)c2nc(N3C[C@@H](O)[C@H](O)C3)ccc2c1=O [Example 370, 7-[(3R,4R)-3,4-Dihydroxypyrrolidin-1-yl]-4-oxo-N-(4,4,4-trifluoro-2-methylbutan-2-yl)-1-(2,4,6-trifluorophenyl)-1,4-dihydro-1,8-naphthyridine-3-carboxamide]
Cooperativity (alpha factor) (human M2 receptor [1]; [6]): 32 | EC50 (human M2 receptor [2]; [7]): 14 nM | Reduction in heart rate (%) (anaesthetized rats): 12%

CC(NC(=O)c1cn(-c2c(F)cc(F)cc2F)c2nc(N3C[C@@H](O)CC3=O)ccc2c1=O)C(F)(F)C(F)(F)F (single isomer, unassigned) [Example 530]
Cooperativity (alpha factor) (human M2 receptor [1]; [3]): 44 | EC50 (human M2 receptor [2]; [4]): 6 nM | Emax (human M2 receptor [2]; [5]): 98.7% | Reduction in heart rate (%) (anaesthetized rats): 13%

CC[C@H](NC(=O)c1cn(-c2ccc(F)cc2F)c2nc(N3C[C@@H](O)CC3=O)ccc2c1=O)C(F)(F)F [Example 174, 1-(2,4-Difluorophenyl)-7-[(4S)-4-hydroxy-2-oxopyrrolidin-yl]-4-oxo-N-[(2S)-1,1,1-trifluorobutan-2-yl]-1,4-dihydro-1,8-naphthyridine-3-carboxamide]
EC50 (human M2 receptor [2]; [7]): 113 nM | Emax (human M2 receptor [2]; read-out: Efficiency): 98.6% | Reduction in heart rate (%) (anaesthetized rats): 7%

CN(C)c1ccc2c(=O)c(C(=O)NCc3c(F)cccc3C(F)(F)F)cn(-c3ccc(F)cc3F)c2n1 [Example 60, 1-(2,4-Difluorophenyl)-7-(dimethylamino)-N-[2-fluoro-6-(trifluoromethyl)benzyl]-4-oxo-1,4-dihydro-1,8-naphthyridine-3-carboxamide]
Cooperativity (alpha factor) (human M2 receptor [1]; [6]): 8 | EC50 (human M2 receptor [2]; [7]): 155 nM

CN(C)c1ccc2c(=O)c(C(=O)NC(c3c(Cl)cccc3Cl)C(F)(F)F)cn(-c3ccc(F)cc3F)c2n1 (racemic) [Example 56, rac-N-[1-(2,6-Dichlorophenyl)-2,2,2-trifluoroethyl]-1-(2,4-difluorophenyl)-7-(dimethylamino)-4-oxo-1,4-dihydro-1,8-naphthyridine-3-carboxamide]
Cooperativity (alpha factor) (human M2 receptor [1]; [6]): 15 | EC50 (human M2 receptor [2]; [7]): 56 nM

CC(NC(=O)c1cn(-c2ccc(F)cc2F)c2nc(N3C[C@@H](O)CC3=O)ccc2c1=O)c1c(F)cccc1F (mixture of isomers) [Example 214, 1-(2,4-Difluorophenyl)-N-[1-(2,6-difluorophenyl)ethyl]-7-[(4S)-4-hydroxy-2-oxopyrrolidin-1-yl]-4-oxo-1,4-dihydro-1,8-naphthyridine-3-carboxamide]
Cooperativity (alpha factor) (human M2 receptor [1]; [6]): 43 | EC50 (human M2 receptor [2]; [7]): 107 nM

O=C(N[C@@H](C1CC1)C(F)(F)F)c1cn(-c2ccc(F)cc2F)c2nc(N3C[C@@H](O)CC3=O)ccc2c1=O (single isomer, unassigned) [Example 284]
EC50 (human M2 receptor [2]; [7]): 61 nM | Reduction in heart rate (%) (anaesthetized rats): 11%

CN(C)c1ccc2c(=O)c(C(=O)Nc3ccccc3C(F)(F)F)cn(-c3ccc(F)cc3F)c2n1 [Example 57, 1-(2,4-Difluorophenyl)-7-(dimethylamino)-4-oxo-N-[2-(trifluoromethyl)phenyl]-1,4-dihydro-1,8-naphthyridine-3-carboxamide]
Cooperativity (alpha factor) (human M2 receptor [1]; [6]): 7 | EC50 (human M2 receptor [2]; [7]): 82 nM

CC(C)C[C@@H](NC(=O)c1cn(-c2c(F)cc(F)cc2F)c2nc(N3C[C@@H](O)[C@@H](O)C3)ccc2c1=O)C(F)(F)F [Example 574, 7-[(3R,4S)-3,4-Dihydroxypyrrolidin-1-yl]-4-oxo-N-[(2R)-1,1,1-trifluoro-4-methylpentan-2-yl]-1-(2,4,6-trifluorophenyl)-1,4-dihydro-1,8-naphthyridine-3-carboxamide]
Cooperativity (alpha factor) (human M2 receptor [1]; [3]): 36 | EC50 (human M2 receptor [2]; [4]): 12 nM | Emax (human M2 receptor [2]; [5]): 100%

CCC(NC(=O)c1cn(-c2ccc(F)cc2F)c2nc(N3CCN(C(=O)OC)CC3)ccc2c1=O)C(F)(F)F (racemic) [Example 23, rac-Methyl 4-{8-(2,4-difluorophenyl)-5-oxo-6-[(1,1,1-trifluorobutan-2-yl)carbamoyl]-5,8-dihydro-1,8-naphthyridin-2-yl}piperazine-1-carboxylate]
Cooperativity (alpha factor) (human M2 receptor [1]; [6]): 20 | EC50 (human M2 receptor [2]; [7]): 96 nM

CN(CCF)c1ccc2c(=O)c(C(=O)NC(C(F)(F)F)C(F)(F)F)cn(-c3ccc(F)cc3F)c2n1 [Example 111, 1-(2,4-Difluorophenyl)-7-[(2-fluoroethyl)(methyl)amino]-N-(1,1,1,3,3,3-hexafluoropropan-2-yl)-4-oxo-1,4-dihydro-1,8-naphthyridine-3-carboxamide]
Cooperativity (alpha factor) (human M2 receptor [1]; [6]): 26 | EC50 (human M2 receptor [2]; [7]): 35 nM

CC[C@@H](NC(=O)c1cn(-c2c(F)cccc2F)c2nc(N3CCC(O)C3=O)ccc2c1=O)C(F)(F)F (single isomer, unassigned) [Example 294]
Cooperativity (alpha factor) (human M2 receptor [1]; [6]): 31 | EC50 (human M2 receptor [2]; [7]): 65 nM

C[C@H](NC(=O)c1cn(-c2c(F)cccc2F)c2nc(N3C[C@@H](O)CC3=O)ccc2c1=O)C(F)(F)F [Example 329, 1-(2,6-Difluorophenyl)-7-[(4S)-4-hydroxy-2-oxopyrrolidin-1-yl]-4-oxo-N-[(2S)-1,1,1-trifluoropropan-2-yl]-1,4-dihydro-1,8-naphthyridine-3-carboxamide]
Cooperativity (alpha factor) (human M2 receptor [1]; [6]): 16 | EC50 (human M2 receptor [2]; [7]): 76 nM

Source: patent US20190367516A1 (Bayer Pharma Aktiengesellschaft, priority 2015, published 2019)
